Results on 14 substances are retold here after patent US20090246249A1, “COATING COMPOSITIONS HAVING IMPROVED PERFORMANCE” (priority 2008, published 2009).

Data set [1] in a line: Critical micelle concentration (methyl orange assay). It is filed as physicochemical. The following applies: pH 7 PBS, methyl orange 0.04 mM, A484. The method, then:
Formation of a composition of the invention, and evidence of macromolecular network formation, may be monitored or quantified by any means known in the art. In this example, macromolecular formation was detected using a standard assay for determining critical micelle concentration (“CMC”). In this assay, a solution containing the composition of the invention (in a range of concentrations in pH 7 phosphate buffered saline (“PBS”)) was mixed with a solution of methyl orange (0.04 mM in PBS), and the absorbance of the mixture was measured at 484 nm (A484). CMC is the concentration at which a sharp decrease in absorbance at A484 is observed, a change in the optical properties of methyl orange when trapped in a hydrophobic phase, such as caused by self-association as a macromolecular network (Table 7, “CMC”). Also included in this assay were an assay control peptide having an amino acid sequence of SEQ ID NO:122 (Table 7, “Control”), and compound 119 (a PEGylated peptide, the peptide having an amino acid sequence of SEQ ID NO:122, as described in more detail in Example 6 herein).

Data set [2] can be described thus: Retention of binding to metal bead after incubation in 10% BSA with 10 mM guanidinium chloride (mimics human plasma). To be noted: 18 hour incubation in 10% BSA + 10 mM guanidinium chloride, 37° C.; comparator SEQ ID NO:122. The source says: In this example, illustrated are unexpected beneficial properties of the composition of the invention, including but not limited to, one or more improved biophysical properties. Such one or more unexpected beneficial properties of a composition of the invention may comprise an increase in stability. An increase in stability may comprise any one or more of resistance to chemical denaturation, resistance to proteolytic degradation, improved retention to a substrate (e.g., resistance to being competed off a substrate to which it is bound, such as by proteins or other biomolecules found in body tissues). Thus, to ascertain a beneficial property of a composition of the invention, it is compared to the properties of a component of the composition-namely, a substrate-binding peptide by itself (e.g., without fatty acid covalently coupled thereto). An assay was developed that, from our direct comparisons (see, e.g., discussion of FIG. 2 below, and Example 7 herein), mimicked the effect of incubation of substrate-binding peptide with human plasma on stability of binding of a substrate-binding peptide to its substrate. The assay utilized incubations in the presence of 10% bovine serum album (BSA) with 10 mM guanidinium chloride. The high BSA concentration mimics the elevated albumin content of human plasma, and the guanidinium chloride is used to compete with any charged interactions involved in binding of the substrate-binding peptide to its substrate.
In this assay, two immunoassay plates were prepared for a “side-by-side” comparison of binding of a test sample (substrate-binding peptide or composition of the invention) to its substrate with or without the presence of 10% BSA with 10 mM guanidinium chloride. The wells of each 96-well polypropylene plate were incubated with 350 μl BSA 1% in PBS for 30 minutes at 20° C. with 500 rpm shaking. To each well was added one acetone-cleaned 3/32″ 316LVM stainless steel bead, followed by addition of dilutions in PBS of the test sample in a range of concentrations starting from 10 μM. Final volume in each well was 200 μl. The plates were incubated for 1 hour at 20° C. with 500 rpm shaking to allow for the binding to occur. The beads were washed 3 times with 250 μl PBS using a plate washer. […]
In the immunoassay for detecting binding without the presence of 10% BSA with 10 mM guanidinium chloride, added to each well was 200 μl of streptavidin AP (AP is alkaline phosphatase) at 1/200 in TBS+1% BSA. […] When color has developed, each well was read at OD405 nm in endpoint mode using a plate reader. […] When color has developed, the wells were read at OD405 nm in endpoint mode using a plate reader. […]

The subject of data set [3] is Staphylococcus aureus strain MZ100. The data set is described as follows: Tibia pin assay: coated titanium pins with vancomycin, bacterial cfu count. In kind it is cell-based. Details: key: —: “−” means no cfus; “many” means too many cfus to count, as they converge into one spot. To be noted: pin coated with test sample + vancomycin. The text has this:
In this assay, titanium pins were used as a model for tibia pins. Briefly, sterile pins were first coated with biofunctional composition (“SEQ ID NO:124-linker-SEQ ID NO:122”) comprising a substrate-binding peptide having binding specificity for vancomycin (“SEQ ID NO:124”) linked to a substrate-binding peptide having binding specificity for metal (“SEQ ID NO:122”), or a composition of the invention formed from compound comprising the biofunctional composition covalently coupled to fatty acid. The respective coatings also include vancomycin bound thereto. The coated pins were then placed in a silicone tube containing liquid bacterial growth medium and inoculated with bacteria. After incubation, the pins were removed, and then the liquid growth medium was serially diluted. The serial dilutions were inoculated onto bacterial culture plates, the plates were incubated, and counted on the plates were bacterial colonies.
In this assay, test samples (biofunctional composition (Table 6, “BC”) or compositions 133, 134, 135, 136 139) each were used to coat a pin by incubating the test sample (in a range of from about 0.8 mM to about 1 mM) with 2.5 μl of a 10 mM vancomycin solution and PBS to a final volume of 250 μl in a microtube (3 pins per tube) for 60 minutes at room temperature with occasional agitation. In a piece of silicone tubing (1.5 mm inner diameter, 50 mm long), added is tryptic soy broth+0.2% glucose, the coated pin, and 103 colony forming units (cfu) of Staphylococcus aureus strain MZ100 in either a 20 μl inoculum, 40 μl inoculum, or 60 μl inoculum. The tubing is clamped closed, and the tubing is incubated for 37° C. for 3 hours. After 3 hours, serial dilutions (1:10, 1:100, 1:1000) were made of the culture media from each tubing, and 10 μl of the undiluted culture medium and of each dilution were spotted onto the bacterial culture plate. The bacterial culture plate was incubated overnight at 37° C., and then the cfus were counted. The results, a composite of different assay runs, are shown in Table 6 (“−” means no cfus; “many” means too many cfus to count, as they converge into one spot; “NT” means not tested).

Square brackets hold non-standard residues; d marks the D form. Ends that are not written are not given here. * marks the point of attachment. Myristoyl = CCCCCCCCCCCCCC(=O)*; Lauroyl = CCCCCCCCCCCC(=O)*; linker = not defined here; Aun = NCCCCCCCCCCC(=O)O Where only a bound is given, the exact number is not on record here.

In data set [1], “SSHRTNHKKNNPKKKNKTRGSSGK [Compound 130, AUD-AUD-AUD-AUD-AUD-AUD-SEQ ID NO:122]” came in with a CMC of 0.041 µM.

In the case of “SSHRTNHKKNNPKKKNKTRGSSGK [SEQ ID NO:122]”, the CMC in data set [1] (listed as Control) is >>10 μM.

Substance “SSHRTNHKKNNPKKKNKTRGSSGK [Compound 131, AUD-AUD-AUD-AUD-AUD-AUD-AUD-AUD-SEQ ID NO:122]” returned a CMC in data set [1] of 0.37 µM.

Regarding “AUD-AUD-AUD-AUD-SEQ ID NO:122 ([Aun][Aun][Aun][Aun]SSHRTNHKKNNPKKKNKTRGSSGK) [Compound 122]”, the “retention of binding of substrate-binding peptide component to its substrate, compared to substrate-binding peptide alone (FIG. 1)” value in data set [2] is given as “significantly improved retention of binding”.

On to “AUD-AUD-K-AUD-AUD-AUD-AUD-SEQ ID NO:122 ([Aun][Aun]K[Aun][Aun][Aun][Aun]SSHRTNHKKNNPKKKNKTRGSSGK) [Compound 123]”, for which the “retention of binding of substrate-binding peptide component to its substrate, compared to substrate-binding peptide alone (FIG. 1)” value in data set [2] is on record as “significantly improved retention of binding”. The same substance had a CMC in data set [1] of 0.04 µM.

As for “SSSCLIDMYGVCHNFDGAYDSSRG [Compound 134, AUD-AUD-AUD-AUD-SEQ ID NO:124-linker-SEQ ID NO:122]”, in data set [3] (20 μl inoculum), the “cfu 1:10” value was “—”, the “cfu 1:100” value is listed as “—” and the “cfu 1:1000” value is given as “—”. In addition, the cfu undiluted result in data set [3] (20 μl inoculum, 103 colony forming units, 3 hours 37° C.) is “—”. Also, in data set [3] (40 μl inoculum), the “cfu 1:10” value came out at 6 cfu, the “cfu 1:100” value turned out to be 1 cfu, the “cfu 1:1000” value is on record as “—” and the cfu undiluted entry is “many”. Also, in data set [3] (60 μl inoculum), the “cfu 1:10” value was 17 cfu, the “cfu 1:100” value is reported as 5 cfu, the “cfu 1:1000” value is “—” and the cfu undiluted entry is reported as “many”.

Consider “[MYR]2-K-linker-SEQ ID NO:122 (SSHRTNHKKNNPKKKNKTRGSSGK; also: lysine bearing two myristoyl groups plus linker, attachment not placed) [Compound 128]”, for which the CMC in data set [1] was 0.123 µM.

With “PALM-PALM-PALM-linker-SEQ ID NO:122 (SSHRTNHKKNNPKKKNKTRGSSGK; also: three palmitoyl groups and linker, attachment not placed) [Compound 129]”, in data set [1], the CMC stood at 0.123 µM.

Substance “MYR-SEQ ID NO:122 (Myristoyl-SSHRTNHKKNNPKKKNKTRGSSGK) [Compound 125]” registered a CMC in data set [1] of 0.123 µM.

“120: amino acid sequence YWAWAYAW (SEQ ID NO:129) covalently coupled to a peptide having the amino acid sequence of SEQ ID NO:122 (YWAWAYAWSSHRTNHKKNNPKKKNKTRGSSGK) [Compound 120, reference compound]”: the “retention of binding of substrate-binding peptide component to its substrate, compared to substrate-binding peptide alone (FIG. 1)” value in data set [2] is given as “failed to promote retention of binding”.

For “LAU-SEQ ID NO:122 (Lauroyl-SSHRTNHKKNNPKKKNKTRGSSGK) [Compound 126]”, the CMC in data set [1] is 0.37 µM.

In the case of “MYR-linker-SEQ ID NO:122 ({Myristoyl-linker}-SSHRTNHKKNNPKKKNKTRGSSGK; reading uncertain) [Compound 127]”, in data set [1], the CMC turned out to be 0.123 µM.

For “Ac-Y-AUD-AUD-AUD-AUD-AUD-AUD-SEQ ID NO:122 (Ac-Y[Aun][Aun][Aun][Aun][Aun][Aun]SSHRTNHKKNNPKKKNKTRGSSGK) [Compound 132]”, the CMC in data set [1] was 0.123 µM.

Regarding “119: Fmoc-NH-(PEG)27-CO2H covalently coupled to a peptide having the amino acid sequence of SEQ ID NO:122 (PEGylated peptide) (SSHRTNHKKNNPKKKNKTRGSSGK; also: Fmoc-NH-(PEG)27-CO2H coupled, site not given here) [Compound 119, reference compound]”, the “retention of binding of substrate-binding peptide component to its substrate, compared to substrate-binding peptide alone (FIG. 1)” value in data set [2] was “failed to promote retention of binding”. The CMC in data set [1] is on record as >>10 μM.
